Legend:
PXR [1] = target: T1, PXR (Mus musculus, UniProt O54915); details: tk-UGT1A6/DR-3-Luc, CV-1 cells
T1 sequence (O54915 1-431): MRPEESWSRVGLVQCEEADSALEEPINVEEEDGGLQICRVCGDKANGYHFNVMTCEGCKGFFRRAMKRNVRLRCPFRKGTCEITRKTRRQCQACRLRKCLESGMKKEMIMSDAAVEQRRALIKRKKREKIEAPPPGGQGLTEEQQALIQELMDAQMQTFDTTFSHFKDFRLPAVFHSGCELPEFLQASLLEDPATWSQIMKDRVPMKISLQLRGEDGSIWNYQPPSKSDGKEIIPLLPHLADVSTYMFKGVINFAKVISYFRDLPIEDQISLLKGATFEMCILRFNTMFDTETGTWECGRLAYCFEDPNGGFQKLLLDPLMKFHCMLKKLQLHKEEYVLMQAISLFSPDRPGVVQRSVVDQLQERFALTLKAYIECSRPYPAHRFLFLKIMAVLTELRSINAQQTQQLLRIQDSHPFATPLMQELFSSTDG
Text: (§1) The reporter gene comprises a thymadine kinase (TK) linked to UGT1A6/DR-3 linked to a luciferace (LUC).
(§2) In an exemplary assay, a luciferase reporter gene containing the UGT1A6/DR-3 upstream of a minimal thymidine kinase (tk) promoter was constructed and transfected into monkey kidney CV-1 cells together with expression vectors for SXR, PXR, or CAR.
(§3) In FIG. 2, the tk-UGT1A6/DR3-Luc construct comprises a UGT inverted or direct repeat and/or a nuclear receptor binding site such that activation of the response element results in transcription of UGT. […] The response element can also comprise an inverse repeat of a suitable half site separated by a 6 nucleotide spacer, or an inverse repeat of a variant thereof, separated by a 6 nucleotide spacer.

SXR [2] = target: T2, SXR (Homo sapiens, UniProt O75469)
T2 sequence (O75469 1-434): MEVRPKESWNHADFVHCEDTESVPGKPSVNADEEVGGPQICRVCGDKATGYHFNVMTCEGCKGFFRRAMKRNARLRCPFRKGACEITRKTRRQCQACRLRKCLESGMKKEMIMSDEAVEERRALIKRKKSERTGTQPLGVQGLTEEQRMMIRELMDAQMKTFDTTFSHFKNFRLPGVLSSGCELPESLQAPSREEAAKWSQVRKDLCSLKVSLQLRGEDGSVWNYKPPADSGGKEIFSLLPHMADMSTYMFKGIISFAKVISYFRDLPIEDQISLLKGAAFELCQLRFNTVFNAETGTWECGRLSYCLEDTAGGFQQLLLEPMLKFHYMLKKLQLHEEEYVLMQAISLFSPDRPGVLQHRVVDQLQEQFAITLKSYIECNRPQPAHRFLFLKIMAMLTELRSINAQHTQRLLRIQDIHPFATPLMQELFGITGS
Text: as §1, §2, §3

[3] = system: rat CYP3A23 gene cellular promoter
Experimental: (§4) The PCR-amplified sequences and target mutagenesis were confirmed by DNA sequencing.
(§5) All compounds were purchased from Sigma.
The above notion would predict: (1) The SXR/PXR response element is essential for the activation of CYP3A genes; and (2) The response elements of SXR and PXR are interchangeable. Therefore, mutagenesis analysis was performed on the promoter of the rat CYP3A23 gene to examine these predictions.

SXR [4] = experiment: Activation of SXR in transfection-based assays
Experimental: To characterize its response properties, a large variety of steroids, including intermediate and major products of known steroid biosynthetic pathways were tested.

[5] = system: human CYP3A4 gene cellular promoter; details: hepatocytes
Text: as §4, §5

CYP3A11 gene = details: mouse, in vivo
Experimental: The animals were allowed free access to food and water at all times. […] When necessary, mice were treated with a single intraperitoneal injection of DEX (50 mg/kg), PCN (40 mg/kg), or CTZ (50 mg/kg).
To examine the drug response of the endogenous liver CYP3A11 gene, animals were treated with single dose of compounds 24 h before sacrifice, and the CYP3A11 gene expression was evaluated by Northern blot analysis on liver total RNA. […] To detect specific transcripts, [^32P]-cDNA probes labeled by Random Primer Labeling Kit (Boringher) were hybridized to the membranes. The probe used to detect transgene contains both the SXR cDNA and the SV40 sequences. […] The filters were subsequently stripped and rehybridized with a murine glyceraldehyde-3-phosphate dehydrogenase (GAPDH) cDNA probe for RNA loading normalization.
Tissues were harvested 24 h later and subjected to Northern blot analysis. Membranes were probed with CYP3A11 cDNA probe, and were subsequently stripped and re-probed with GAPDH and transgene specific probes.

PXR [6] = target: T1, PXR; experiment: Activation of mouse receptor PXR by the panel of compounds

Row | SMILES | PXR-mediated UGT activation (PXR [1]) | activation of the UGT reporter by SXR (SXR [2]) | PXR and/or SXR-mediated activation of mutated CYP3A23 promoter [3] | inducibility of CYP3A23 promoter with DR-3 replaced by IR-6 [3] | induction of CYP3A23 cellular promoter reporter [3] | activation of SXR by compounds known to induce CYP3A4 (SXR [4]) | SXR activation of DR-3, DR-4 and DR-5 elements (SXR [4]; series of transfections) | activation of SXR (SXR [4]; transfection-based assays, steroids tested) | activation of CYP3A23 cellular promoter reporter [3] | activation of CYP3A4 cellular promoter reporter [5] | induction of liver CYP3A11 expression (CYP3A11 gene) | activation of PXR (PXR [6])
1 | Clc1ccccc1C(c1ccccc1)(c1ccccc1)n1ccnc1 [CTZ, clotrimazole] | activation was seen | Significant activation | abolished | successfully rescue the inducibility | significant induction | – | – | – | – | – | – | –
2 | CC(=O)[C@H]1[C@H](C#N)C[C@H]2[C@@H]3CC=C4C[C@@H](O)CC[C@]4(C)[C@H]3CC[C@@]21C [PCN, pregnenolone-16-carbonitrile] | activation was seen | – | abolished | successfully rescue the inducibility | remained unchanged | weak activator | among the best activators | activated | most potent and efficacious tested activators | can be activated | equally efficacious | preferentially activated

Reference: patent US7413853B2, “Modulation of metabolism of steroids and xenobiotics” (The Salk Institute for Biological Studies, priority 2001, dated 2008)
